The subject of one test is CD8+ T cells in PBMCs. Kind of test: HLA-GFP acquisition by CD8+ T cells in PBMCs mixed with peptide-pulsed HmyA2GFP cells (FACS). Particulars: PBMC of HAM/TSP patient #5.
In test [1] the test system is tetramer-positive T cells from PBMC of HAM/TSP patients. Kind of test: intracellular perforin staining of tetramer-positive T cells (FACS). Format: cell-based, human.
Method: The above-described phenotypically defined T cell populations were further characterized with respect to perforin expression and cytolytic activity. For intracellular perforin staining, cells were fixed and permeabilization with Cytofix/CytoPerm kit (BD Pharmingen), and stained with monoclonal antibody specific for perforin (BD Pharmingen). The cells were subjected to further FACS analysis and the resulting data was analyzed with Cellquest software (Becton Dickinson) to obtain the mean fluorescence intensity (MFI) for the cell populations.
For test [2] the test system is unchanged. Kind of test: CD27 and CD45RA expression in HLA-GFP-acquiring tetramer-positive T cells after peptide presentation by HmyA2GFP cells. The class given is cell-based, human.
The subject of a further test is PBMCs. Kind of test: peptide loaded HLA-A*201 tetramer analysis of PBMCs (FACS). The following applies: PBMC of HAM/TSP patient #5.
Where [3] appears, read: CMV tetramer-positive cells, After contact with HmyA2GFP cells (1 hour).
The mark [4] stands for this setting: HLA-GFP-acquiring tetramer-positive cells after stimulation with peptide-pulsed HmyA2GFP cells.

As to NLVPMVATV [CMV pp65], the “frequency of peptide-specific T cells in the PBMC population by the inventive method” value with CD8+ T cells in PBMCs stood at 6.34%. For the same sequence, the “Perforin Expression Levels (in MFI)” value in test [1] (HLA acquiring CMV tetramer-positive cells) turned out to be 9.543 MFI. In addition, the “change in the amount of perforin in virus-specific T cells after peptide stimulation” value in test [1] (after stimulation with peptide-pulsed HmyA2GFP cells) is on record as “significant decrease”. In test [2] (setting [3]), the “% CD27+ CD4SRA−” value is recorded as 2.51%, the “% CD27+ CD45RA+” value came to 3.05%, the “% CD27− CD45RA+” value worked out at 42.625% and the “% CD27− CD45RA−” value is given as 51.813%. Moreover, in test [2] (setting [4]), the “change of CD27+CD45RA− (memory) subset” value is “concomitant decrease”, the “change of CD27-CD45+ (effector) subset” value is listed as “no significant change” and the “change of CD27-CD45RA− (effector/memory) subset” value was “significant increase”. Moreover, in the test with PBMCs, the “peptide-specific T cells in the PBMCs by tetramer” value is recorded as 6.57%.

For the origin of these results see US20070178532A1 (priority 2003, published 2007).
